Measurements taken from patent US20100298141A1, “SUBSTITUTED PYRIDINE N-OXIDE HERBICIDES” (E. I. DU PONT DE NEMOURS AND COMPANY, priority 2007, published 2010).

Tests used:
[1] = tested on: crabgrass; experiment: Test A pre-/postemergence greenhouse test; assay type: in vivo, Digitaria sanguinalis; conditions: for Crabgrass, Large plant response rating: 0 to 100 scale
Summary of the method: (§1)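 Visual injury ratings, made relative to untreated controls roughly ten days after treatment, cover both preemergence and postemergence application. Compounds in a surfactant-containing non-phytotoxic solvent were sprayed onto the soil surface after sowing and, simultaneously, onto young plants at the one- to two-leaf stage.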

[2] = tested on: Goosegrass; experiment: Test C pre-/postemergence test; assay type: in vivo, Eleusin indica
Summary of the method: (§2)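 Compounds in a non-phytotoxic solvent with surfactant applied preemergence to seeded pots and, at the same time, postemergence to plants 2–18 cm tall (1- to 4-leaf stage). Paddy tests: pots flooded to 3 cm, compound applied into the water, depth held throughout.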

[3] = tested on: soybean; experiment: Test C pre-/postemergence test; assay type: in vivo, Glycine max
Summary of the method: as §2

[4] = tested on: velvetleaf; experiment: Test A pre-/postemergence greenhouse test; assay type: in vivo, Abutilon theophrasti; conditions: for Velvetleaf plant response rating: 0 to 100 scale
Summary of the method: as §1

[5] = tested on: barnyardgrass; experiment: Test A pre-/postemergence greenhouse test; assay type: in vivo, Echinochloa crus-galli; conditions: for Barnyardgrass plant response rating: 0 to 100 scale
Summary of the method: as §1

[6] = tested on: umbrella sedge; experiment: Test C flooded paddy test; assay type: in vivo, Cyperus difformis; conditions: Flood
Summary of the method: (§3)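 Test compounds are applied straight into paddy water held 3 cm above the soil surface, with that flood maintained for the whole test. After 13 to 15 days in the greenhouse, each species is scored visually relative to controls.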

[7] = tested on: barnyardgrass; experiment: Test C flooded paddy test; assay type: in vivo, Echinochloa crus-galli; conditions: Flood
Summary of the method: as §3

[8] = tested on: johnsongrass; experiment: Test C pre-/postemergence test; assay type: in vivo, Sorghum halepense
Summary of the method: as §2

[9] = tested on: pigweed; experiment: Test C pre-/postemergence test; assay type: in vivo, Amaranthus retroflexus
Summary of the method: as §2

[10] = tested on: corn; experiment: Test C pre-/postemergence test; assay type: in vivo, Zea mays
Summary of the method: as §2

[11] = tested on: crabgrass; experiment: Test C pre-/postemergence test; assay type: in vivo, Digitaria sanguinalis
Summary of the method: as §2

[12] = tested on: Italian ryegrass; experiment: Test C pre-/postemergence test; assay type: in vivo, Lolium multiflorum
Summary of the method: as §2

[13] = tested on: yellow nutsedge; experiment: Test C pre-/postemergence test; assay type: in vivo, Cyperus esculentus
Summary of the method: as §2

[14] = tested on: corn; experiment: Test A pre-/postemergence greenhouse test; assay type: in vivo, Zea mays; conditions: for Corn plant response rating: 0 to 100 scale
Summary of the method: as §1

[15] = tested on: green foxtail; experiment: Test C pre-/postemergence test; assay type: in vivo, Setaria viridis
Summary of the method: as §2

[16] = tested on: bermudagrass; experiment: Test C pre-/postemergence test; assay type: in vivo, Cynodon dactylon
Summary of the method: as §2

[17] = tested on: duck salad; experiment: Test C flooded paddy test; assay type: in vivo, Heteranthera limosa; conditions: Flood
Summary of the method: as §3

[18] = Postemergence, 125 g ai/ha, 0 is no effect, 100 is complete control
[19] = Postemergence, 500 g ai/ha, 0 is no effect, 100 is complete control
[20] = Preemergence, 125 g ai/ha, 0 no effect, 100 complete control
[21] = Preemergence, 500 g ai/ha, 0 to 100 scale where 0 is no effect and 100 is complete control
[22] = 31 g ai/ha, Preemergence, scale 0 to 100
[23] = 62 g ai/ha, preemergence, scale 0 (no effect) to 100 (complete control)
[24] = preemergence, 125 g ai/ha, scale 0 (no effect) to 100 (complete control)
[25] = 31 g ai/ha, scale 0 to 100 (0 no effect, 100 complete control)
[26] = 62 g ai/ha, scale 0 to 100, 0 no effect, 100 complete control, 13 to 15 days
[27] = 125 g ai/ha, scale 0 to 100, 0 no effect, 100 complete control, 13 to 15 days
[28] = 250 g ai/ha, scale 0 to 100 (0 no effect, 100 complete control)

Cn1nc(C(F)(F)F)c(C[S+]([O-])c2cccc[n+]2[O-])c1Cl (centres unmarked) [Compound 8]
Crabgrass, Large plant response rating [1, 18]: 80
Crabgrass, Large plant response rating [1, 19]: 90
Crabgrass, Large plant response rating [1, 20]: 90
Plant response rating, Crabgrass, Large [1, 21]: 100
Goosegrass plant response rating [2, 22]: 98
Goosegrass plant response rating [2, 23]: 100
Plant response rating (0 to 100), Goosegrass ([2]; Preemergence, 250 g ai/ha): 100
Goosegrass plant response rating [2, 24]: 100
Soybean plant response rating [3, 22]: 0
Soybean plant response rating [3, 23]: 0
Plant response rating (0 to 100), Soybean ([3]; Preemergence, 250 g ai/ha): 90
Soybean plant response rating [3, 24]: 80
Velvetleaf plant response rating [4, 18]: 40
Velvetleaf plant response rating [4, 19]: 70
Velvetleaf plant response rating [4, 20]: 70
Plant response rating, Velvetleaf [4, 21]: 80
Barnyardgrass plant response rating [5, 18]: 80
Barnyardgrass plant response rating [5, 19]: 80
Barnyardgrass plant response rating [5, 20]: 90
Plant response rating, Barnyardgrass [5, 21]: 100
Plant response rating, Sedge, Umbrella [6, 25]: 0
Plant response rating, Sedge, Umbrella [6, 26]: 0
Plant response rating, Sedge, Umbrella [6, 27]: 85
Plant response rating, Sedge, Umbrella [6, 28]: 100
Plant response rating, Barnyardgrass [7, 25]: 0
Plant response rating, Barnyardgrass [7, 26]: 0
Plant response rating, Barnyardgrass [7, 27]: 40
Plant response rating, Barnyardgrass [7, 28]: 85
Johnsongrass plant response rating [8, 22]: 80
Johnsongrass plant response rating [8, 23]: 85
Plant response rating (0 to 100), Johnsongrass ([8]; Preemergence, 250 g ai/ha): 100
Johnsongrass plant response rating [8, 24]: 85
Pigweed plant response rating [9, 22]: 85
Pigweed plant response rating [9, 23]: 100
Plant response rating (0 to 100), Pigweed ([9]; Preemergence, 250 g ai/ha): 100
Pigweed plant response rating [9, 24]: 100
Corn plant response rating [10, 22]: 60
Corn plant response rating [10, 23]: 80
Plant response rating (0 to 100), Corn ([10]; Preemergence, 250 g ai/ha): 98
Corn plant response rating [10, 24]: 95
Crabgrass, Large plant response rating [11, 22]: 90
Crabgrass, Large plant response rating [11, 23]: 100
Plant response rating (0 to 100), Crabgrass, Large ([11]; Preemergence, 250 g ai/ha): 100
Crabgrass, Large plant response rating [11, 24]: 100
Ryegrass, Italian plant response rating [12, 22]: 0
Ryegrass, Italian plant response rating [12, 23]: 50
Plant response rating (0 to 100), Ryegrass, Italian ([12]; Preemergence, 250 g ai/ha): 95
Ryegrass, Italian plant response rating [12, 24]: 70
Nutsedge, Yellow plant response rating [13, 22]: 60
Nutsedge, Yellow plant response rating [13, 23]: 80
Plant response rating (0 to 100), Nutsedge, Yellow ([13]; Preemergence, 250 g ai/ha): 100
Nutsedge, Yellow plant response rating [13, 24]: 100
Corn plant response rating [14, 18]: 50
Corn plant response rating [14, 19]: 60
Corn plant response rating [14, 20]: 20
Plant response rating, Corn [14, 21]: 70
Foxtail, Green plant response rating [15, 22]: 100
Foxtail, Green plant response rating [15, 23]: 100
Plant response rating (0 to 100), Foxtail, Green ([15]; Preemergence, 250 g ai/ha): 100
Foxtail, Green plant response rating [15, 24]: 100
Bermudagrass plant response rating [16, 22]: 80
Bermudagrass plant response rating [16, 23]: 100
Plant response rating (0 to 100), Bermudagrass ([16]; Preemergence, 250 g ai/ha): 100
Bermudagrass plant response rating [16, 24]: 100
Plant response rating, Ducksalad [17, 25]: 0
Plant response rating, Ducksalad [17, 26]: 0
Plant response rating, Ducksalad [17, 27]: 50
Plant response rating, Ducksalad [17, 28]: 90
